The data set in a line: Human HepG2 cell viability assay in 384 well format. Format: toxicity, cell-based. Set-up: dose 125 nL, time 70.5 hour; cytotoxicity at 70.5 h: concentration not given beside the values. As to conditions: HepG2 cells, read-out: Inhibition.
Turning to `CN1C(=O)C(c2cccnc2)CC12CCN(CCO)CC2` (stereo not given), the cytotoxicity at 70.5 h was -0.847%.
In the case of `CC(NC(=O)c1ccc(F)cc1F)c1cnn(C)c1` (stereo not given) it was -4.48%.
As for `O=C(O)CNc1cc(-c2nccnc2N2CCCC2)c2cc[nH]c2n1`, the figure is 0.303%.
With `CCNc1cc2c(nn1)CCN(C(=O)CC1CCCC1)C2`, the cytotoxicity at 70.5 h was -5.46%.
On to `Cc1ncc(CNC(=O)NCC(C)Oc2ccccc2F)s1` (stereo not given), for which the cytotoxicity at 70.5 h was -3.22%.
In the case of `Cc1ccc2c(c1)SCC(=O)N2CC(=O)N1CCC[C@H]1c1nc(C)no1` it was -5.13%; in that of `COCc1csc(NC(=O)NCc2ccccn2)n1`, 5.11%.
Regarding `CN(C)C(=O)Cc1ccccc1NCc1cccc(F)c1F`, the cytotoxicity at 70.5 h was 0.378%.
In the case of `COc1ccccc1C1=NOC(CC2(C(=O)NC(C)C)CCOCC2)C1` (stereo not given) it was -4.53%.
Turning to `Cc1cccc(CNC2CCCc3c2cnn3C)c1` (stereo not given), the cytotoxicity at 70.5 h was -6.91%.
As for `Cc1nn(C)cc1-c1cc(C(F)(F)F)nc(NC2CCCCC2)n1`, the figure is -9.44%; as for `O=C(Cn1ncc2c(c1=O)CCCCC2)Nc1cccc2[nH]ccc12`, 3.91%.
For the molecule `COc1c(C(=O)NCc2cnn(C)c2C)nnn1Cc1ccccc1`, the cytotoxicity at 70.5 h was found to be 23%.
In the case of `COc1ccc(Cl)cc1-c1nc(N)nc(N)n1` it was 26%; in that of `Cc1cnn(CC2CN(Cc3csc(C4CCCC4)n3)CCO2)c1` (stereo not given), -0.185%.
With `c1ccc(Cn2cc3c(n2)C(CNCc2ccco2)OCC3)nc1` (stereo not given), the cytotoxicity at 70.5 h was -0.917%.
As for `CN1CCN(c2cc(CNC(=O)c3cccnc3O)ccn2)CC1`, the figure is -1.85%.
As to `Cc1nc(C2CCCN(C(=O)c3cccc4c3OCO4)C2)sc1C` (stereo not given), the cytotoxicity at 70.5 h is -2.18%.
As for `O=C(CSc1ccccc1)N1CCC(N2CCCCC2=O)CC1`, the figure is 19%; as for `CCc1nnc2n1CCN(Cc1ncc(-c3ccc(F)cc3)o1)C2`, -6.74%; as for `O=C(Cc1ccc(F)cc1)NCCNCc1cccc(O)c1`, 0.177%.
For the molecule `c1cncc(CN2CCc3ncnc(NCCc4c[nH]cn4)c3CC2)c1`, the cytotoxicity at 70.5 h is -1.46%.
As for `CCN(Cc1ccco1)C(=O)NCC(C)N1CCc2sccc2C1` (stereo not given), the figure is 13.6%.
In the case of `CN(Cc1csc(-c2ccccc2)n1)Cc1ncccc1C(=O)O` it was 11.5%; in that of `O=C(Nc1cccnc1)[C@H]1C[C@@H]2CCN(Cc3nccs3)C[C@@H]2O1`, -15.1%.
As to `O=C(Cc1csc(-c2ccco2)n1)N1CCN(CCO)CC1`, the cytotoxicity at 70.5 h came out at 5.35%.
As for `CN(C)CC1CN(Cc2ccc(F)cc2)Cc2nccn2C1` (stereo not given), the cytotoxicity at 70.5 h is -4.49%.
As for `Cc1ccc(CN(C(=O)NCCNC(=O)c2cccnc2)C(C)C)o1`, the figure is 14.6%.
As for `COc1cccc(OCC2CCCN(C(=O)c3cc(C)n[nH]3)C2)c1` (stereo not given), the figure is 4.2%; as for `CCc1nccn1-c1cncc(C2CCCN2CC(=O)N2CCCC2)n1` (stereo not given), -3.79%.
In the case of `OC1CCN([C@@H]2CCN(c3nc(-c4ccccc4)no3)C[C@H]2O)CC1` it was -1.33%; in that of `O=C(Nc1nc(-c2ccccc2)ns1)N1CCC(CO)CC1`, -12.6%; in that of `CCCC(=O)NCC(=O)Nc1cc(F)ccc1SCC(F)F`, 2.19%.
In the case of `CN(C)C(=O)C1CCN(C2CCN(CC3CC3)CC2)CC1`, the cytotoxicity at 70.5 h was -5.51%.
In the case of `CC(C)c1noc(-c2ccc(NCCCC3CCOC3)nc2)n1` (stereo not given) it was -0.0541%; in that of `CCc1ccc(C(=O)N2CCCN(Cc3nccn3CC)CC2)s1`, 14%.
In the case of `Cc1cc(NC2CCN(CC3CCCO3)CC2)n2nc(C)c(C)c2n1` (stereo not given) it was 4.66%; in that of `COCCN1CCN(C(=O)c2ccncc2F)Cc2cccnc21`, -12.3%.
Consider `CCCS(=O)(=O)CC(=O)Nc1ccsc1`, for which the cytotoxicity at 70.5 h is 7.39%.
As for `Cc1cc(C)n(CCN2CCN(C(=O)c3ccc(Br)o3)CC2)n1`, the figure is -4.56%; as for `CCN1CC2(CC1=O)CN(Cc1ccoc1)CCN(C(=O)C(C)C)C2` (stereo not given), -20.2%; as for `Cc1nc(NC(=O)NC2CC(=O)N(C)C2)nn1C` (stereo not given), 7.5%.
In the case of `Cc1nc(O)cc(C2CCCN(Cc3c(Cl)cncc3Cl)C2)n1` (stereo not given) it was -8.65%.
As for `Cn1ccnc1CN1CCCN(C(=O)c2ccc3c(c2)OCO3)CC1`, the figure is -6.18%; as for `O=C(N1CCCC1)N1C[C@H]2CC[C@@]3(N=C(c4ccccc4)NC3=O)[C@H]2C1`, 12.6%.
As to `CS(=O)(=O)NC1CCN(Cc2coc(-c3ccc(Cl)cc3)n2)CC1`, the cytotoxicity at 70.5 h came to 7.7%.
In the case of `COc1ccc(OC)c(CNc2c(O)c(=O)c2=O)c1` it was -21.2%; in that of `Cc1cccc(N2CCN(C(=O)NC(C)c3nncn3C)CC2)c1C` (stereo not given), -3.82%.
In the case of `CNC(=O)CN([C@H]1C[C@H]2CCOC[C@H]2C1)S(=O)(=O)c1ccccc1` it was -5.55%.
As to `Cc1cnc(C(=O)N2Cc3ncn(C)c3C(COCC(C)C)C2)cn1` (stereo not given), the cytotoxicity at 70.5 h was -4.87%.
In the case of `COC[C@]12COC[C@H]1CN(C(=O)C1CCSCC1)C2` it was -6.73%.
In the case of `COc1ccc(-n2cc(CNC(=O)c3ccccn3)nn2)cc1`, the cytotoxicity at 70.5 h is -8.76%.
Consider `COc1ccc(NCC2(O)CCNCC2)cc1OC`, for which the cytotoxicity at 70.5 h is 6.97%.
In the case of `CCN1CCN(c2ccc(NC(=O)CC(C)C)c(C)c2)CC1` it was -20.9%.
In the case of `c1cncc(N2CCCn3nnc(COCC4CC4)c3C2)c1` it was -7.98%; in that of `Cc1cc(C(=O)N(C)Cc2cnn(C)c2C)n(C)n1`, 14%; in that of `Cn1ccc2cc(CC3COCCN(C(=O)c4ccccn4)C3)ccc21` (stereo not given), -6.94%.
As for `CN(C)C(=O)c1cnc2n1CCN(Cc1cccc(C#N)c1)C2`, the figure is -7.44%.
In the case of `CCCN1CC2(CCN(c3ncc(F)cn3)CC2)CC1C(=O)O` (stereo not given), the cytotoxicity at 70.5 h is -7.12%.
As for `COCCN(Cc1ccc(F)cc1C#N)CC(F)(F)F`, the figure is -10.5%.
Regarding `O=C(CC1CCCC1)N1CCCC(c2n[nH]c3nccnc23)C1` (stereo not given), the cytotoxicity at 70.5 h is -0.397%.
Regarding `CCc1nccn1C1CCCN(C(=O)C2=NN(C)C(=O)CC2)C1` (stereo not given), the cytotoxicity at 70.5 h was -8.58%.
As for `Cc1ccccc1OCCn1cnc2oc(C)c(C(=O)O)c2c1=O`, the figure is -7.96%; as for `c1nc(CCNc2nc(C3CC3)nc3c2CCNCC3)c[nH]1`, -10.1%.
Take `Cn1cc(C(C)(O)CNc2ccc(C(F)(F)F)cn2)cn1` (stereo not given): the cytotoxicity at 70.5 h is -1.94%.
In the case of `C[S+]([O-])c1ccc(NC(=O)Cc2cccnc2)cc1F` (stereo not given) it was 11.1%; in that of `OC(COCc1ccccc1)CN1CC(n2cccn2)C1` (stereo not given), -3.54%.
In the case of `Cc1[nH]ncc1C(=O)N1CCCC1c1noc(C2CC2)n1` (stereo not given), the cytotoxicity at 70.5 h was 19.4%.
In the case of `Cc1nc(CN2CCCC(NCCOc3cccc(C#N)c3)C2)no1` (stereo not given) it was -2.71%; in that of `CSC1(CNC(=O)NC(C)c2ccc(F)c(F)c2)CCOCC1` (stereo not given), -1.76%; in that of `Cn1nc(Cn2cccn2)c2c1CN(C1CCOCC1)C2`, -0.608%.
For the molecule `Cc1noc(CCNC(=O)c2ccc(N(C)C)c(F)c2)n1`, the cytotoxicity at 70.5 h was -3.5%.
Regarding `CCc1noc(C)c1C(=O)N1CCCC1Cn1cc(C)cn1` (stereo not given), the cytotoxicity at 70.5 h stood at 25.2%.
As to `N#Cc1ncn(CC(=O)Cc2c(F)cccc2Cl)n1`, the cytotoxicity at 70.5 h was -5.66%.
For `O=C(c1c[nH]cn1)N1CCC(F)(F)C2(CCN(c3ncccn3)C2)C1` (stereo not given), the cytotoxicity at 70.5 h is -5.46%.
`COCCOCC(=O)Nc1cccc(CN(C)C(C)=O)c1`: the cytotoxicity at 70.5 h was determined as 27.5%.
In the case of `CC1=NN(c2ccc(C(=O)OCCNC(=O)c3ccncc3)cc2)CC1` it was -2.48%; in that of `Nc1nnnn1NCc1cccc(Cl)c1Cl`, 21.9%; in that of `N#Cc1ccc(N2CCC(OCCc3ccccc3)CC2)nc1`, -13.8%.
On to `CCn1cnnc1CNc1nc(C)nc2scc(CC(C)C)c12`, for which the cytotoxicity at 70.5 h is -15.9%.
As for `COc1ccc(S(N)(=O)=O)cc1C(=O)N(C)Cc1cc(C)on1`, the figure is 24.6%; as for `CC(C)(NCC(=O)NCC1CC1)c1ccc2c(c1)OCCO2`, 15.5%.
Turning to `Cc1cc(C2CCCN(C(=O)c3ccc(C)[nH]c3=O)C2)n[nH]1` (stereo not given), the cytotoxicity at 70.5 h is -13.9%.
`CN(C)C(=O)CN1CCC2(C1)CN(CC1CCOCC1)C2`: the cytotoxicity at 70.5 h is -2.25%.
For `O=C(O)C1(Cc2ccc(F)cc2F)CCCN(Cc2ccncc2)C1` (stereo not given), the cytotoxicity at 70.5 h is -5.04%.
For `O=C(N1CCCC1)N1CCC2(CC1)C(=O)N(CC1CC1)c1ccccc12`, the cytotoxicity at 70.5 h is -20.3%.
In the case of `COc1ccc2cc(NC(=O)CCNc3nc(C)cc(C)n3)cnc2c1` it was -24.1%; in that of `CCC1(C)Cc2ccccc2-c2nc(NCCCO)nc(O)c21` (stereo not given), -4.42%.
Regarding `Cc1cc(COC(=O)[C@@H]2Cc3ccccc3CN2S(C)(=O)=O)no1`, the cytotoxicity at 70.5 h was determined as 1.54%.
In the case of `Cc1nc(C)n(CC2CCCN2Cc2cn3ccsc3n2)n1` (stereo not given), the cytotoxicity at 70.5 h is 3.39%.
Regarding `COc1ccc2c(c1)s/c(=N\C(=O)CSCC(=O)Nc1nccs1)n2C`, the cytotoxicity at 70.5 h is 16.4%.
In the case of `Cc1cnn(CC2CCCN2Cc2nc3ccccc3n2C)c1` (stereo not given) it was -10.6%; in that of `CCC1CCCN(CC(=O)Nc2oc(C)c3c(C)n[nH]c(=O)c23)C1` (stereo not given), -9.67%; in that of `Cn1ccc(C(=O)NC2CCC23CCN(Cc2cnn(C)c2)CC3)c1` (stereo not given), -1.29%.
On to `COc1ncc(CN2C[C@@H]3CC[C@@](O)(c4ccc(C)cn4)[C@@H]3C2)cn1`, for which the cytotoxicity at 70.5 h stood at 2.96%.
Take `Cc1nc(C)n(C2CCCN(C(=O)c3sccc3C3CC3)C2)n1` (stereo not given): the cytotoxicity at 70.5 h is 21.5%.
For `COc1cc(-c2nc3c([nH]2)CCCNC3=O)cc(OC)c1OC`, the cytotoxicity at 70.5 h is -1.49%.
As for `CC(C)(C)n1cc(CNC2CCN(C(=O)c3ccco3)CC2)cn1`, the figure is 1.29%; as for `COc1ccc(CNC(=O)c2nn(C)c3c2CS(=O)(=O)CC3)cc1`, -7.69%; as for `Cc1cc(C(=O)N2CCn3cnc(COCC4CC4)c3C2)no1`, 0.0472%.

The values are drawn from ChEMBL document CHEMBL3507680, “University of Dundee, Gates Library screen for HepG2 cell viability”.
